Here are results for 11 compounds from ChEMBL document CHEMBL1201862, “PubChem BioAssay data set” (2004).

Molecules are shown by their SMILES.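 96-well plates; 48 h exposure; 5 concentrations. Endpoints by linear interpolation between flanking doses. Not reached: highest tested concentration assigned. At the GI50, growth is halved.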 Calls of active or inactive are those of the source. Cut-off read from the data, not from the text of the source: active = GI50 up to about 1.1 µM and inactive = higher.

Some test systems named below: SF-295; EKVX; HCT-116; OVCAR-8; OVCAR-3; RXF 393; M14; HOP-62; NCI/ADR-RES; A498; UACC-62; HCT-15; SNB-19; NCI-H23; COLO 205; Malme-3M; HOP-92; SNB-75; HCC 2998; SR.
Common to all, as to experiment: NCI anticancer screen, dose series, 48 h

For the compound `CCc1n[nH]c(=O)n1/N=C/c1ccc(/C=N/n2c(CC)n[nH]c2=O)cc1`, the GI50 in the experiment on SF-295, with EKVX, in the experiment with HCT-116, in the experiment on OVCAR-8, in the experiment on OVCAR-3 and with RXF 393 was > 100 µM (inactive) throughout. Also, the GI50 with M14 is > 100 µM (inactive); with HOP-62, > 100 µM (inactive); in the experiment on NCI/ADR-RES, > 100 µM (inactive); in the experiment with A498, > 100 µM (inactive); in the experiment with UACC-62, > 100 µM (inactive); in the experiment with HCT-15, over 100 µM. The GI50 in the experiment on SNB-19, with NCI-H23, in the experiment on COLO 205 and with Malme-3M was > 100 µM (inactive) in each case.

With `O=NN(CCCl)C(=O)NC1CCCCC1` [LOMUSTINE], the GI50 in the experiment on SF-295 is 32 µM (inactive); in the experiment with EKVX, 72.8 µM (inactive); in the experiment on HCT-116, 38.8 µM (inactive); in the experiment with OVCAR-8 it was 52.2 µM (inactive); in the experiment on OVCAR-3, 66.2 µM (inactive); with RXF 393, 35.3 µM (inactive). Besides, the GI50 with HOP-92 was 31.3 µM (inactive); with M14, 41 µM (inactive); in the experiment on HOP-62, 61.7 µM (inactive); in the experiment on NCI/ADR-RES, 51.3 µM (inactive); in the experiment on SNB-75, 37.2 µM (inactive); in the experiment on A498, 74.3 µM (inactive). Moreover, the GI50 in the experiment with UACC-62 was 12.7 µM (inactive); in the experiment on HCT-15, 29.9 µM; with SNB-19, 52.5 µM (inactive); with NCI-H23, 68.5 µM (inactive); in the experiment with HCC 2998, 56 µM (inactive); with COLO 205, 41.2 µM (inactive). Also, the GI50 in the experiment on Malme-3M is 57.8 µM (inactive).

Consider `CC#CS(=O)(=O)c1ccccc1`, for which the GI50 was 3.56 µM (inactive) with SF-295; 18.6 µM (inactive) with EKVX; 4.36 µM (inactive) in the experiment on HCT-116; 3.02 µM (inactive) in the experiment with OVCAR-8; 1.63 µM (inactive) with OVCAR-3; 14.2 µM (inactive) in the experiment on RXF 393. Further, the GI50 in the experiment with HOP-92 is 2.51 µM (inactive); in the experiment on M14, 5.87 µM (inactive); with HOP-62, 21.7 µM (inactive); with NCI/ADR-RES, 10.4 µM (inactive); in the experiment with SNB-75, 3.01 µM (inactive); in the experiment with A498, 15.4 µM (inactive). Also, the GI50 is 3.24 µM (inactive) in the experiment with UACC-62; 2.88 µM in the experiment on HCT-15; 14.2 µM (inactive) in the experiment with SNB-19; 5.2 µM (inactive) in the experiment with NCI-H23; 3.96 µM (inactive) in the experiment with HCC 2998; 11.2 µM (inactive) in the experiment on COLO 205. Further, the GI50 in the experiment on Malme-3M was 2.88 µM (inactive).

On to `CCCCCCCCCCCCCCCCCCNC(=O)C(N)Cc1ccc(OCc2ccccc2)cn1` (stereo not drawn), for which the GI50 was 24 µM (inactive) in the experiment with SF-295; 22.6 µM (inactive) in the experiment on EKVX; 21.5 µM (inactive) in the experiment with HCT-116; 15.8 µM (inactive) with OVCAR-8; 25.4 µM (inactive) in the experiment with OVCAR-3; 20 µM (inactive) with RXF 393. Besides, the GI50 was 17.1 µM (inactive) in the experiment on HOP-92; 17.9 µM (inactive) in the experiment on M14; 19 µM (inactive) in the experiment on HOP-62; 20 µM (inactive) in the experiment on NCI/ADR-RES; 27.4 µM (inactive) with SNB-75; 20.3 µM (inactive) with A498. Besides, the GI50 in the experiment on UACC-62 is 16.7 µM (inactive); in the experiment on HCT-15 it was 18.9 µM; in the experiment with SNB-19, 19.8 µM (inactive); in the experiment with NCI-H23, 16.8 µM (inactive); with HCC 2998 it was 11.9 µM (inactive); in the experiment on COLO 205 it was 15.4 µM (inactive). Besides, the GI50 in the experiment on Malme-3M was 20.6 µM (inactive).

As for `CC(C)=NNc1snnc1C(N)=O`, the GI50 with SF-295, in the experiment on EKVX, in the experiment on HCT-116, with OVCAR-8, in the experiment with OVCAR-3 and with RXF 393 was > 100 µM (inactive) each time. The GI50 with M14, with HOP-62, in the experiment with NCI/ADR-RES, with SNB-75, in the experiment with A498 and in the experiment with UACC-62 was > 100 µM (inactive) in each case. Also, the GI50 with SNB-19, with NCI-H23, with HCC 2998, in the experiment on COLO 205 and in the experiment with Malme-3M was > 100 µM (inactive) each time.

With `COc1ccc(-c2c(C(C)=O)c(-c3ccccc3)n(C3OC(CO)C(O)C(O)C3O)c(=S)c2C#N)cc1` (stereo not drawn), the GI50 with SF-295, in the experiment with EKVX, in the experiment with HCT-116, in the experiment with OVCAR-8, in the experiment on OVCAR-3 and in the experiment with RXF 393 was > 100 µM (inactive) each time. The GI50 in the experiment on M14 is > 100 µM (inactive); with HOP-62, > 100 µM (inactive); with NCI/ADR-RES, > 100 µM (inactive); in the experiment on A498 it was > 100 µM (inactive); in the experiment with UACC-62 it was 43.6 µM (inactive); in the experiment with HCT-15 it was over 100 µM. In addition, the GI50 with SNB-19, with NCI-H23, in the experiment with HCC 2998, in the experiment with COLO 205 and in the experiment with Malme-3M was > 100 µM (inactive) in each case.

On to `c1ccc2c3nnc(c2c1)SCCSCCCSCCS3`, for which the GI50 with SF-295 is 31.4 µM (inactive); in the experiment with EKVX, > 100 µM (inactive); in the experiment with HCT-116, > 100 µM (inactive); in the experiment on OVCAR-8, 56.9 µM (inactive); with OVCAR-3 it was 38 µM (inactive); in the experiment with RXF 393 it was 38.5 µM (inactive). For the same compound, the GI50 is 37.2 µM (inactive) in the experiment with HOP-92; > 100 µM (inactive) in the experiment on M14; 29.4 µM (inactive) in the experiment with HOP-62; 75.3 µM (inactive) with NCI/ADR-RES; 3.52 µM (inactive) in the experiment with SNB-75; 45.1 µM (inactive) in the experiment on A498. In addition, the GI50 in the experiment with UACC-62 was 57.5 µM (inactive); in the experiment on HCT-15 it was over 100 µM; in the experiment with SNB-19 it was 26.5 µM (inactive); in the experiment with NCI-H23, > 100 µM (inactive); with HCC 2998, > 100 µM (inactive); with COLO 205, > 100 µM (inactive). The GI50 in the experiment with Malme-3M is 29.6 µM (inactive).

As for `O=[N+]([O-])c1cc(Cl)cnc1Br`, the GI50 with SF-295 is 3.4 µM (inactive); with EKVX, 4.19 µM (inactive); with HCT-116 it was 4.42 µM (inactive); in the experiment on OVCAR-8, 2.12 µM (inactive); in the experiment on OVCAR-3, 2.38 µM (inactive); in the experiment with RXF 393, 1.52 µM (inactive). Further, the GI50 with HOP-92 was 8.75 µM (inactive); with M14 it was 3.87 µM (inactive); in the experiment on HOP-62, 18.3 µM (inactive); with NCI/ADR-RES, 2.14 µM (inactive); in the experiment with A498 it was 17.1 µM (inactive); with UACC-62, 1.93 µM (inactive). The GI50 with HCT-15 was 2.25 µM; in the experiment with SNB-19 it was 9.71 µM (inactive); in the experiment with NCI-H23 it was 5.52 µM (inactive); in the experiment with HCC 2998, 1.37 µM (inactive); with COLO 205, 1.34 µM (inactive); with Malme-3M it was 10.9 µM (inactive).

`CN1CCC2(CC1)SSC1(CCN(C)CC1)S2`: the GI50 in the experiment with SF-295, in the experiment with HCT-116, in the experiment with OVCAR-8, with HOP-92, in the experiment with M14 and in the experiment with HOP-62 was > 100 µM (inactive) each time. Besides, the GI50 with NCI/ADR-RES is > 100 µM (inactive); in the experiment on SNB-75, > 100 µM (inactive); in the experiment on SR, > 100 µM (inactive); in the experiment with UACC-62, 46.7 µM (inactive); in the experiment on HCT-15, over 100 µM; with SNB-19 it was 69.3 µM (inactive). The GI50 was > 100 µM (inactive) in the experiment on NCI-H23 and 80.2 µM (inactive) in the experiment on COLO 205.

Turning to `COc1cc([C@@H]2c3cc4c(cc3[C@H](OC3OC5COC(c6ccco6)OC5C(O)C3O)C3COC(=O)[C@@H]32)OCO4)cc(OC)c1OC` (stereo partly drawn), the GI50 in the experiment with SF-295 is 3.67 µM (inactive); in the experiment on HCT-116, 3.27 µM (inactive); in the experiment with OVCAR-8, 14.2 µM (inactive); in the experiment with OVCAR-3, 3.21 µM (inactive); in the experiment with RXF 393, 2.82 µM (inactive); in the experiment with HOP-92, 9.93 µM (inactive). Further, the GI50 is 4.44 µM (inactive) in the experiment on M14; 7.89 µM (inactive) with HOP-62; 9.93 µM (inactive) with NCI/ADR-RES; > 100 µM (inactive) in the experiment with SNB-75; 2.29 µM (inactive) in the experiment on A498; 4.73 µM (inactive) with UACC-62. Besides, the GI50 with HCT-15 is 3.2 µM; with SNB-19 it was 3.9 µM (inactive); in the experiment with NCI-H23 it was 3.56 µM (inactive); in the experiment with HCC 2998, 4 µM (inactive); with COLO 205, 4.06 µM (inactive); in the experiment on Malme-3M it was 22.3 µM (inactive).

Take `C=CC[C@]1(/C=N/O)CN(S(=O)(=O)CC[Si](C)(C)C)C[C@H]2CC=CC[C@H]21`: the GI50 in the experiment with SF-295 is 15.6 µM (inactive); with EKVX it was 25.7 µM (inactive); with HCT-116, 14.2 µM (inactive); in the experiment on OVCAR-8, 24 µM (inactive); in the experiment with RXF 393, 13.6 µM (inactive); in the experiment on M14, 20.2 µM (inactive). The GI50 with HOP-62 was 20 µM (inactive); in the experiment on NCI/ADR-RES, 39.8 µM (inactive); with SNB-75 it was 21 µM (inactive); in the experiment with A498, 17.7 µM (inactive); in the experiment with UACC-62, 16.6 µM (inactive); in the experiment with HCT-15 it was 38.4 µM. Besides, the GI50 is 21.8 µM (inactive) with SNB-19; 27.7 µM (inactive) with NCI-H23; 16.7 µM (inactive) in the experiment on HCC 2998; 17.3 µM (inactive) with COLO 205; 20.5 µM (inactive) with Malme-3M.
